Read-outs that look alike come from different tables or passages of the source.
Experiments:
hepatic hGCGR = target: T1, hepatic hGCGR (Homo sapiens, UniProt P47871); assay: In vivo inhibition of hepatic 125I-glucagon binding (hGCGR occupancy) in hGCGR mouse
T1 construct: a transgenic line of mouse that expresses the hGCGR instead of the murine GCGR; from tissue; host or cells: liver of hGCGR mouse, in vivo
Method: Inhibition of ^125I-glucagon binding to hGCGR (a measure of hGCGR occupancy by antagonist) was assayed in hGCGR mouse liver in vivo as previously described. Glycogen content of perfused hGCGR mouse liver was measured as previously described. In brief, livers were perfused ex vivo with Ringers solution containing 6.7 mM [2-^13C]pyruvate while ^13C content (indicative of accumulated [^13C]glycogen) was monitored dynamically by nuclear magnetic resonance imaging.
Figure 2 In vivo inhibition of hepatic ^125I-glucagon binding in the hGCGR mouse following (A) acute and (B) chronic dosing with GRA1. The data are mean (±SEM) percent reductions in liver ^125I-glucagon content measured (A) 1, 3, 5, and 8 h after a single oral dose of 3 mg/kg GRA1, and (B) after treatment for 30 days with control diet or food/drug admixtures that provided 3, 6, 10, or 30 mg/kg·day GRA1.

rhesus monkeys = assay: Fasted plasma glucagon, glucose and amino acids in rhesus monkeys dosed 14 days; type: in vivo, rhesus monkey
Method: In a follow-up experiment, adult rhesus monkeys were dosed once daily for 14 days with 30 mg/kg GRA1 or vehicle (0.5% methylcellulose plus 0.02% sodium dodecyl sulfate in 2 mL/kg water) delivered by oral gavage. Blood samples were collected on days 0, 1, 7, and 14 after the animals had fasted overnight. Plasma concentrations of glucose, glucagon, and amino acids were assayed by the Hormone Assay & Analytical Services Core at Vanderbilt University (Nashville, TN).

[1] = rhesus, 30 mg/kg once daily, Day 0
[2] = rhesus, 30 mg/kg once daily, Day 1
[3] = rhesus, 30 mg/kg once daily, Day 7
[4] = rhesus, 30 mg/kg once daily, Day 14

T1 sequence (P47871 26-477): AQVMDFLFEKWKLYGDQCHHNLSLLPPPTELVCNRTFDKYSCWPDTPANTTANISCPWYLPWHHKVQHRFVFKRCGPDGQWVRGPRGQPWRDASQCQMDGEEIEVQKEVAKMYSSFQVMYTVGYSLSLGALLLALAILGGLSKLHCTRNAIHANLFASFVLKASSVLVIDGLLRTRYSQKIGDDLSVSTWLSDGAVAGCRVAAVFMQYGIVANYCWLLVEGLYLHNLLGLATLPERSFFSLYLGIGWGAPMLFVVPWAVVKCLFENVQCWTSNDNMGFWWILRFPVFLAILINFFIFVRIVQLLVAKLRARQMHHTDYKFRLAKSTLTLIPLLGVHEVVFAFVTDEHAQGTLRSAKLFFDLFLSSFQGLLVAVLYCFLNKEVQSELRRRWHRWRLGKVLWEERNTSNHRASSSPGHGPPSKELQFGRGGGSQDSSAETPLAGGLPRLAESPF

For `COc1ccc2cc(-c3cc(-c4cc(C(F)(F)F)ccc4F)nn3[C@@H](C)c3ccc(C(=O)NCCC(=O)O)cc3)ccc2c1` [GRA1, N-[4-((1S)-1-{3-(2-fluoro-5-trifluoromethylphenyl)-5-[6-methoxynaphth-2-yl]-1H-pyrazol-1-yl}ethyl)benzoyl]-β-alanine], which receptor occupancy at 3 mg/kg (hepatic hGCGR; 30 days food admixture, 3 mg/kg·day, read-out: Receptor occupancy) is on record?
Its receptor occupancy at 3 mg/kg is 71%.

What about the receptor occupancy at 6 mg/kg (hepatic hGCGR; 30 days food admixture, 6 mg/kg·day) of the same compound?
The receptor occupancy at 6 mg/kg was 78%.

What about the receptor occupancy at 10 mg/kg (hepatic hGCGR; 30 days food admixture, 10 mg/kg·day) of the same compound?
The receptor occupancy at 10 mg/kg was 83%.

What about the receptor occupancy at 30 mg/kg (hepatic hGCGR; 30 days food admixture, 30 mg/kg·day) of the same compound?
Its receptor occupancy at 30 mg/kg is 93%.

What about the receptor occupancy at 3 mg/kg (hepatic hGCGR; po, single oral dose 3 mg/kg, 1 h postdose, read-out: Receptor occupancy) of the same compound?
Its receptor occupancy at 3 mg/kg is 64%.

And the receptor occupancy at 3 mg/kg (hepatic hGCGR; po, single oral dose 3 mg/kg, 3 h postdose, read-out: Receptor occupancy)?
Its receptor occupancy at 3 mg/kg is 71%.

What about the receptor occupancy at 3 mg/kg (hepatic hGCGR; po, single oral dose 3 mg/kg, 5 h postdose, read-out: Receptor occupancy) of the same compound?
The receptor occupancy at 3 mg/kg was 65%.

What about the receptor occupancy at 3 mg/kg (hepatic hGCGR; po, single oral dose 3 mg/kg, 8 h postdose, read-out: Receptor occupancy) of the same compound?
The receptor occupancy at 3 mg/kg was 73%.

What about the receptor occupancy at 3 mg/kg (hepatic hGCGR; po, single oral dose 3 mg/kg, for 1–8 h, read-out: Reduction of in vivo occupancy of hepatic hGCGR by 125I-glucagon) of the same compound?
Its receptor occupancy at 3 mg/kg is 64 to 73%.

What about the Hypoglycemia (rhesus monkeys; normoglycemic rhesus, 30 mg/kg once daily, 14 days) of the same compound?
Its Hypoglycemia is “not rendered hypoglycemic”.

What about the Plasma insulin (rhesus monkeys; rhesus, 30 mg/kg once daily (data not shown)) of the same compound?
The Plasma insulin was “unaffected”.

And the “Alanine, fasted plasma” value (rhesus monkeys; [1])?
The value was 200 ± 21 µM.

What about the “Arginine, fasted plasma” value (rhesus monkeys; [1]) of the same compound?
Its value is 124 ± 15 µM.

And the “Asparagine, fasted plasma” value (rhesus monkeys; [1])?
The value was 61.2 ± 17.8 µM.

What about the “Aspartic acid, fasted plasma” value (rhesus monkeys; [1]) of the same compound?
The value was 5.3 ± 1.3 µM.

What about the “Glucagon, fasted plasma” value (rhesus monkeys; [1]) of the same compound?
Its value is 381 ± 74 pg/mL.

And the “Glucose, fasted plasma” value (rhesus monkeys; [1])?
Its value is 85.3 ± 9.4 mg/dL.

What about the “Glutamic acid, fasted plasma” value (rhesus monkeys; [1]) of the same compound?
The value was 48.1 ± 3.6 µM.

What about the “Glutamine, fasted plasma” value (rhesus monkeys; [1]) of the same compound?
Its value is 597 ± 66 µM.

What about the “Glycine, fasted plasma” value (rhesus monkeys; [1]) of the same compound?
Its value is 300 ± 32 µM.

What about the “Histidine, fasted plasma” value (rhesus monkeys; [1]) of the same compound?
The value was 121 ± 11 µM.

And the “Hydroxyproline, fasted plasma” value (rhesus monkeys; [1])?
The value was 12.9 ± 2.3 µM.

What about the “Isoleucine, fasted plasma” value (rhesus monkeys; [1]) of the same compound?
The value was 98.2 ± 8.3 µM.

What about the “Leucine, fasted plasma” value (rhesus monkeys; [1]) of the same compound?
The value was 147 ± 9 µM.

And the “Lysine, fasted plasma” value (rhesus monkeys; [1])?
Its value is 191 ± 25 µM.

What about the “Methionine, fasted plasma” value (rhesus monkeys; [1]) of the same compound?
Its value is 22.9 ± 2.7 µM.

What about the “Phenylalanine, fasted plasma” value (rhesus monkeys; [1]) of the same compound?
Its value is 47.8 ± 2.4 µM.

What about the “Proline, fasted plasma” value (rhesus monkeys; [1]) of the same compound?
The value was 118 ± 13 µM.

What about the “Serine, fasted plasma” value (rhesus monkeys; [1]) of the same compound?
Its value is 123 ± 8 µM.

And the “Threonine, fasted plasma” value (rhesus monkeys; [1])?
The value was 95.2 ± 5.9 µM.

And the “Tyrosine, fasted plasma” value (rhesus monkeys; [1])?
The value was 77.2 ± 6.8 µM.

What about the “Valine, fasted plasma” value (rhesus monkeys; [1]) of the same compound?
The value was 256 ± 21 µM.

And the “Alanine, fasted plasma” value (rhesus monkeys; [2])?
The value was 500 ± 79 µM.

And the “Arginine, fasted plasma” value (rhesus monkeys; [2])?
Its value is 237 ± 33 µM.

And the “Asparagine, fasted plasma” value (rhesus monkeys; [2])?
The value was 42.5 ± 8.3 µM.

And the “Aspartic acid, fasted plasma” value (rhesus monkeys; [2])?
Its value is 5.6 ± 0.7 µM.

And the “Glucagon, fasted plasma” value (rhesus monkeys; [2])?
Its value is 921 ± 16 pg/mL.

What about the “Glucose, fasted plasma” value (rhesus monkeys; [2]) of the same compound?
Its value is 63.7 ± 2.7 mg/dL.

And the “Glutamic acid, fasted plasma” value (rhesus monkeys; [2])?
Its value is 71.9 ± 5.7 µM.

And the “Glutamine, fasted plasma” value (rhesus monkeys; [2])?
Its value is 986 ± 150 µM.

What about the “Glycine, fasted plasma” value (rhesus monkeys; [2]) of the same compound?
The value was 533 ± 70 µM.

What about the “Histidine, fasted plasma” value (rhesus monkeys; [2]) of the same compound?
The value was 153 ± 14 µM.

What about the “Hydroxyproline, fasted plasma” value (rhesus monkeys; [2]) of the same compound?
Its value is 15.4 ± 2.3 µM.

And the “Isoleucine, fasted plasma” value (rhesus monkeys; [2])?
Its value is 72.4 ± 7.9 µM.

What about the “Leucine, fasted plasma” value (rhesus monkeys; [2]) of the same compound?
The value was 164 ± 24 µM.

What about the “Lysine, fasted plasma” value (rhesus monkeys; [2]) of the same compound?
The value was 390 ± 56 µM.

And the “Methionine, fasted plasma” value (rhesus monkeys; [2])?
Its value is 50.2 ± 10.0 µM.

What about the “Phenylalanine, fasted plasma” value (rhesus monkeys; [2]) of the same compound?
Its value is 52.6 ± 7.0 µM.

And the “Proline, fasted plasma” value (rhesus monkeys; [2])?
The value was 326 ± 54 µM.

And the “Serine, fasted plasma” value (rhesus monkeys; [2])?
Its value is 228 ± 24 µM.

And the “Threonine, fasted plasma” value (rhesus monkeys; [2])?
The value was 179.1 ± 25.1 µM.

What about the “Tyrosine, fasted plasma” value (rhesus monkeys; [2]) of the same compound?
The value was 161.4 ± 26.8 µM.

What about the “Valine, fasted plasma” value (rhesus monkeys; [2]) of the same compound?
Its value is 252 ± 33 µM.

And the “Alanine, fasted plasma” value (rhesus monkeys; [3])?
The value was 456 ± 68 µM.

What about the “Arginine, fasted plasma” value (rhesus monkeys; [3]) of the same compound?
Its value is 341 ± 76 µM.

And the “Asparagine, fasted plasma” value (rhesus monkeys; [3])?
Its value is 54.2 ± 10.8 µM.

And the “Aspartic acid, fasted plasma” value (rhesus monkeys; [3])?
Its value is 6.7 ± 1.2 µM.

What about the “Glucagon, fasted plasma” value (rhesus monkeys; [3]) of the same compound?
Its value is 874 ± 101 pg/mL.

What about the “Glucose, fasted plasma” value (rhesus monkeys; [3]) of the same compound?
The value was 69.2 ± 4.9 mg/dL.

And the “Glutamic acid, fasted plasma” value (rhesus monkeys; [3])?
Its value is 98.9 ± 15.2 µM.

What about the “Glutamine, fasted plasma” value (rhesus monkeys; [3]) of the same compound?
Its value is 1186 ± 164 µM.

What about the “Glycine, fasted plasma” value (rhesus monkeys; [3]) of the same compound?
The value was 558 ± 74 µM.

And the “Histidine, fasted plasma” value (rhesus monkeys; [3])?
The value was 170 ± 15 µM.

And the “Hydroxyproline, fasted plasma” value (rhesus monkeys; [3])?
The value was 23.3 ± 5.3 µM.

What about the “Isoleucine, fasted plasma” value (rhesus monkeys; [3]) of the same compound?
The value was 88.6 ± 8.2 µM.

What about the “Leucine, fasted plasma” value (rhesus monkeys; [3]) of the same compound?
Its value is 215 ± 44 µM.

And the “Lysine, fasted plasma” value (rhesus monkeys; [3])?
The value was 340 ± 71 µM.

What about the “Methionine, fasted plasma” value (rhesus monkeys; [3]) of the same compound?
The value was 36.1 ± 5.6 µM.

And the “Phenylalanine, fasted plasma” value (rhesus monkeys; [3])?
The value was 49.7 ± 3.3 µM.

And the “Proline, fasted plasma” value (rhesus monkeys; [3])?
Its value is 490 ± 95 µM.

What about the “Serine, fasted plasma” value (rhesus monkeys; [3]) of the same compound?
Its value is 256 ± 41 µM.

What about the “Threonine, fasted plasma” value (rhesus monkeys; [3]) of the same compound?
Its value is 160.9 ± 21.3 µM.

What about the “Tyrosine, fasted plasma” value (rhesus monkeys; [3]) of the same compound?
Its value is 110.6 ± 7.9 µM.

What about the “Valine, fasted plasma” value (rhesus monkeys; [3]) of the same compound?
The value was 260 ± 17 µM.

What about the “Alanine, fasted plasma” value (rhesus monkeys; [4]) of the same compound?
Its value is 361 ± 51 µM.

And the “Arginine, fasted plasma” value (rhesus monkeys; [4])?
The value was 282 ± 54 µM.

And the “Asparagine, fasted plasma” value (rhesus monkeys; [4])?
Its value is 33.8 ± 4.8 µM.

And the “Aspartic acid, fasted plasma” value (rhesus monkeys; [4])?
The value was 5.9 ± 0.8 µM.

What about the “Glucagon, fasted plasma” value (rhesus monkeys; [4]) of the same compound?
The value was 984 ± 186 pg/mL.

And the “Glucose, fasted plasma” value (rhesus monkeys; [4])?
The value was 69.2 ± 3.8 mg/dL.

What about the “Glutamic acid, fasted plasma” value (rhesus monkeys; [4]) of the same compound?
Its value is 91.9 ± 10.0 µM.

What about the “Glutamine, fasted plasma” value (rhesus monkeys; [4]) of the same compound?
Its value is 1151 ± 191 µM.

What about the “Glycine, fasted plasma” value (rhesus monkeys; [4]) of the same compound?
Its value is 531 ± 76 µM.

And the “Histidine, fasted plasma” value (rhesus monkeys; [4])?
Its value is 187 ± 21 µM.

What about the “Hydroxyproline, fasted plasma” value (rhesus monkeys; [4]) of the same compound?
Its value is 15.3 ± 2.3 µM.

And the “Isoleucine, fasted plasma” value (rhesus monkeys; [4])?
The value was 89.6 ± 7.8 µM.

And the “Leucine, fasted plasma” value (rhesus monkeys; [4])?
The value was 218 ± 36 µM.

And the “Lysine, fasted plasma” value (rhesus monkeys; [4])?
The value was 375 ± 70 µM.

What about the “Methionine, fasted plasma” value (rhesus monkeys; [4]) of the same compound?
The value was 34.7 ± 6.3 µM.

What about the “Phenylalanine, fasted plasma” value (rhesus monkeys; [4]) of the same compound?
Its value is 51.5 ± 1.8 µM.

And the “Proline, fasted plasma” value (rhesus monkeys; [4])?
Its value is 415 ± 84 µM.

What about the “Serine, fasted plasma” value (rhesus monkeys; [4]) of the same compound?
The value was 217 ± 28 µM.

And the “Threonine, fasted plasma” value (rhesus monkeys; [4])?
Its value is 155.3 ± 23.3 µM.

What about the “Tyrosine, fasted plasma” value (rhesus monkeys; [4]) of the same compound?
Its value is 105.8 ± 9.9 µM.

And the “Valine, fasted plasma” value (rhesus monkeys; [4])?
The value was 276 ± 20 µM.

And the “Increase of plasma glucagon relative to vehicle-treated controls” value (rhesus monkeys; rhesus, 30 mg/kg once daily, both Day 1 and Day 7)?
Its value is “approximately 3 fold”.

Source: paper PMC3501516, “Anti-Diabetic Efficacy and Impact on Amino Acid Metabolism of GRA1, a Novel Small-Molecule Glucagon Receptor Antagonist” (PLoS ONE, 2012)
